According to patent US11154536B2, “Pyrazoline-derived compound and its use in a weekly dosage regime against inflammation and pain derived from degenerative joint disease in mammals” (ECUPHAR N.V., priority 2014, dated 2021):

Experiments:
[1] = tested on: naturally occurring osteoarthritis; assay: Example 3: randomized, blinded multi-centre clinical trial in dogs with naturally occurring osteoarthritis (Clinical Sum Score); assay type: in vivo, dog; conditions: loading dose 4 mg/kg then 2 mg/kg weekly; for P of reduction in CSS compared to the Placebo group: tablets
Description: One study (headed as example 3) has been performed to evaluate the efficacy of E-6087 in dogs with naturally occurring osteoarthritis under real field conditions. E-6087 was administered in tablets.
For a dog to be included in the study, the following criteria must be fulfilled: • 1. Owner's consent obtained prior to the start of any study activities. • 2. Age ≥12 months. • 3. Body weight ≥5 kg. • 4. Clinical signs of osteoarthritis for one (with the exception of the spine including spinal joints, cranium, and vertebral column) or more joints for at least 3 weeks. • 5. Confirmation by radiographic evidence of the presence of osteoarthritis in the dog. […] Minimum Clinical Sum Score (CSS) ≥6. If more than one joint was affected by OA, the most severely affected joint (with the exception of the spine) was assessed subsequently for efficacy.
Once included, dogs were randomly assigned to a treatment group. A practitioner was in charge of administering either a Placebo or E-6087 under two different dosage regimes to animals, while another one was in charge of blindly evaluating the progression of clinical signs during a 42-day follow-up.
A Clinical Sum Score (CSS) was used for the assessment of pain and lameness at several time points during the follow-up, including clinical assessments in this order for posture, lameness at walk, lameness at rot and pain at palpation/manipulation. The CSS was the sum of the individual scores.
This study was designed to evaluate the effectiveness of E-6087 under real field conditions. E-6087 was administered at a loading dose of 4 mg/kg followed by weekly maintenance doses of 2 mg/kg The study was designed as a controlled, randomized, blinded, multi-centre clinical trial.
A total of 60 osteoarthritic dogs were included in the E-6087 group and 60 dogs in the Placebo group. All dogs underwent a follow-up period of 42 days, with clinical evaluations of lameness and pain on days 0, 7, 14, 28 and 42. A Clinical Sum Score (CSS) was calculated for the lameness and pain parameters at each time point.

[2] = tested on: urate crystal induced acute arthritis in the stifle (femorotibial) joint; assay: Example 1: reversible urate crystal acute arthritis model in dog, E-6087 p.o. 4 mg/kg on D0 and D12; assay type: in vivo
Description: (§1) The experimental model used in both studies was the same and it consists in the induction of an acute arthritis through the inoculation of an urate crystal suspension in the stifle (femorotibial) joint of dogs. […] Partial or total inhibition of this reaction at a given time point after treatment administration is attributable to its pharmacological effect.
(§2) The reversible urate crystal arthritis model used in next examples has been previously described in the literature [Toutain P. L. et al. J. Vet. Pharmacol. Therap. 24, 43-55, 2001].
(§3) A sodium urate crystal suspension at a concentration of 10 mg·mL-1 was prepared as follows: • Uric acid sodium salt (Sigma) was weighed in a 100 mL graduated flask. • 0.9% NaCl solution was added to a final volume of 100 mL. • The suspension was mixed at room temperature by vortexing for approximately 5 min, by magnetic stirring for 5 min and was then sonicated for approximately 1 h. • The suspension was distributed in 1.5 mL vials and then autoclaved for 2 h at 120° C. • Finally the suspension was mixed by vortexing for 5 min, and sonicated for approximately 1 h.
(§4) The intra-articular injections were performed under general anaesthesia using Propovet multidose at a propofol dose of 6.5 mg.kg-1 by intravenous route without premedication. This induction medication was intended to result in a rapid onset anaesthesia with duration of about 10 minutes of unconsciousness and full recovery within approximately 30 minutes. For most of the dogs, Propovet multidose (half dose) was re-injected to maintain appropriate anaesthesia.
(§5) All urate crystal injections were introduced in the stifle (femorotibial) joint. The intra-articular injection was performed under aseptic conditions using a 30 mm long and 1 mm diameter sterile needle and a 2.5 mL syringe. The joint was checked for successful joint puncture, by synovial aspiration. One millilitre of urate crystal suspension was used for each intra-articular injection.
(§6) The duration of the induced inflammatory process was expected to be approximately 16 to 24 h and the average time of maximum lameness in untreated animals 2 to 3 hours after induction.
(§7) To assess the anti-inflammatory and analgesic effect of the test item, two clinical signs of arthritis were investigated: lameness and pain, respectively. Their intensity was determined using the following scoring systems:
This study was designed to determine whether the blood levels of E-6087 achieved after one single oral dose of E-6087 at 4 mg/kg in dog, do have some short and/or long-term antiinflammatory and analgesic effects. In addition, a second dose of E-6087 at 4 mg/kg was administered to evaluate the eventual effect derived from the accumulation of the molecule in blood.
The study was performed with seven male Beagle dogs randomly allocated to 3 groups.
During the study, the arthritis induction model was implemented on four occasions to each dog: • In dogs of Group I, on Days 0*, 7, 14** and 21. • In dogs of Group II, on Days 2**, 7, 14** and 21. • In dogs of Group III, on […].
(§8) According to the institutional ethics committee's recommendations, the first and third inoculations were done in the right stifle while the second and fourth inoculations were done in the left stifle. On each day of arthritis induction, the anti-inflammatory and analgesic efficacy of treatments was assessed at different time points (just before the inoculation, and 0.5, 1, 2, 3, 4, 6, 9 and 12 hours later). Two clinical signs of arthritis were assessed by using a scoring system at each time point: visual lameness (whilst standing and walking) and pain at (inoculated stifle) palpation. The median, minimal and maximal values for this parameter were determined for each group at each time point. Blood sampling was performed at different time points during the study in dogs of groups I and II in order to determine blood concentrations of E-6087.

[3] = Example 1: blood/plasma concentrations of E-6087 in treated dogs; assay type: in vivo, dog
Description: as §8

[4] = tested on: urate crystal induced acute arthritis in the stifle (femorotibial) joint; assay: Example 2: urate crystal acute arthritis model in dogs, loading dose plus weekly maintenance doses of E-6087; assay type: in vivo, dog
Description: as §1, §2, §3, §4, §5, §6, §7
This study was designed to evaluate the effectiveness of two different treatment regimes for E-6087. In both cases it was administered a loading dose, followed by a weekly maintenance dose. […]
According to the institutional ethics committee's recommendations, the first and third inoculations were performed in the right stifle while the second inoculation was performed in the left stifle. On each day of arthritis induction, the anti-inflammatory and analgesic efficacy of treatments was assessed at different time points (just before the inoculation, and 0.5, 1, 2, 3, 4, 6, 9 and 12 hours later).
Two clinical signs of arthritis were assessed by using a scoring system at each time point: visual lameness (whilst standing and walking) and pain at (inoculated stifle) palpation. A combined visual lameness score, determined as the sum of the standing and walking lameness scores, was calculated and finally used for efficacy evaluation. The median, minimal and maximal values for this parameter were determined for each group at each time point. […]

[5] = induction on day D7 after the first 4 mg/kg p.o. dose
[6] = induction two hours after the first 4 mg/kg p.o. dose (Day 0)
[7] = inductions on D14 and D21, after the second 4 mg/kg dose on D12

**Q.** With `NS(=O)(=O)c1ccc(N2N=C(C(F)(F)F)CC2c2ccc(F)cc2F)cc1` (racemic) [E-6087] as the compound, how does the “P of reduction in CSS compared to the Placebo group” value ([1]; day 28, statistically significant) read?
**A.** < 0.05

**Q.** And the “P of reduction in CSS compared to the Placebo group” value ([1]; day 42, highly significant)?
**A.** < 0.01

**Q.** What about the “Mean Clinical Sum Score (CSS)” value ([1]; dropped under the threshold between day 7 and day 14) of the same compound?
**A.** < 6

**Q.** What about the “Adverse reactions related to the administration” value ([2]; 4 mg/kg p.o. on D0 and D12, throughout the 28-day study) of the same compound?
**A.** No adverse reactions

**Q.** What about the “Persistence of anti-inflammatory/analgesic effect” value ([2]; after the second dose of 4 mg/kg (12 days after the first dose)) of the same compound?
**A.** persisted at least during nine days

**Q.** What about the “Lameness assessment (control of induced lameness)” value (shortened to “Lameness assessment”) [2, 5] of the same compound?
**A.** slightly controlled

**Q.** What about the “Pain assessment (control of induced pain at palpation)” value (“Pain assessment” for short) [2, 5] of the same compound?
**A.** slightly controlled

**Q.** And the “Lameness assessment” value [2, 6]?
**A.** not controlled at all

**Q.** What about the “Pain assessment” value [2, 6] of the same compound?
**A.** not controlled at all

**Q.** What about the “Lameness assessment” value [2, 7] of the same compound?
**A.** absolutely controlled

**Q.** And the “Pain assessment” value [2, 7]?
**A.** absolutely controlled

**Q.** What about the “Plasma levels after the second dose” value ([3]; 4 mg/kg p.o. on D0 and D12, blood samples of treated dogs) of the same compound?
**A.** increase in plasma levels

**Q.** And the “Blood levels 48 hours after administration” value ([3]; 4 mg/kg p.o., 48 hours after administration)?
**A.** significant blood levels

**Q.** And the “Inflammatory/painful reaction after arthritis induction” value (from here on “Inflammatory/painful reaction”) ([4]; Group C, treatment regimen II (8 mg/kg loading, 4 mg/kg weekly), from Day 9 onwards)?
**A.** very mild reaction

**Q.** What about the “Inflammatory/painful reaction” value ([4]; Group C, treatment regimen II, induction on Day 0, two hours after the 8 mg/kg loading dose) of the same compound?
**A.** severe inflammatory/painful reaction

**Q.** And the “Inflammatory/painful reaction” value ([4]; Groups A and B, treatment regimen I (4 mg/kg Days 0 and 1, then 4 mg/kg weekly), inductions on Days 2, 4 and 9)?
**A.** mild inflammatory/painful reactions

**Q.** And the “Inflammatory/painful reaction” value ([4]; Groups A and B, treatment regimen I, inductions on Days 14, 23 and 28)?
**A.** none (or very mild) reactions

**Q.** What about the “Adverse reactions related to the administration” value ([4]; Groups A, B and C, throughout the study) of the same compound?
**A.** No adverse reactions
